In patent EP4497440A1, “USE OF 7-TRIFLUOROMETHYL-7ALPHA,25-DIHYDROXYCHOLESTEROL IN THE TREATMENT AND MODULATION OF AUTOIMMUNE AND INFLAMMATORY DISEASES OF THE NERVOUS SYSTEM AND NEURODEGENERATIVE DISEASES” (Gdanski Uniwersytet Medyczny, priority 2023, dated 2025):
Values joined by “and” are separate entries in the source; they are usually repeats but may differ in a detail not shown here. Equal values may be shown once. “Also recorded” adds a separate entry of the source.

Columns and labels:
white blood cells = test: Cuprizone model: blood morphology (white blood cell counts); type: in vivo, mice
Description: C (Fig 7) or #3 (Fig 8 and 9) vehicle control group - the mice were fed with chow containing cuprizone for 9 weeks, and then with regular chow without cuprizone for another 2 weeks. Over the 2 weeks on regular chow the mice in the vehicle control group were first injected vehicle #1: DMSO (intraperitoneal injection), 150 µl once a day, and then vehicle #2: canola oil, subcutaneously, 150 µl once a day.
#4 (Fig 8 and 9) barbadin control group - the mice were fed with chow containing cuprizone for 9 weeks, and then with regular chow without cuprizone for another 2 weeks. Over the 2 weeks on regular chow the mice in the group were injected barbadin 0.3 mg/kg, intraperitoneally, 150 µl once a day, and then vehicle #2: canola oil, subcutaneously, 150 µl once a day.
E (Fig 7) or #5 experimental group with oxysterol CF3-7α,25OHC - the mice were fed with chow containing cuprizone for 9 weeks, and then with regular chow without cuprizone for another 2 weeks. Over the 2 weeks on regular chow the mice in the group were injected vehicle #1: DMSO, intraperitoneally, 150 µl once a day, and CF3-7α,25OHC, dose: 20 mg/kg, subcutaneously, 150 µl once a day.
#6 (Fig 8 and 9) experimental group with barbadin + oxysterol CF3-7α,25OHC - the mice were fed with chow containing cuprizone for 9 weeks, and then with regular chow without cuprizone for another 2 weeks. Over the 2 weeks on regular chow the mice in the group were injected barbadin, 0.3 mg/kg, intraperitoneally, 150 µl once a day, and then one hour following the barbadin injection they were injected CF3-7α,25OHC, dose: 20 mg/kg, subcutaneously, 150 µl once a day.
The blood from the heart was sampled after the mice had been euthanised, and blood morphology test was performed using a standard diagnostic analyser. […] The lymphocyte count in peripheral blood of the mice which had been injected with CF3-7α,25OHC was lower by 50% compared to the control group of mice injected with vehicles (gr. #3 or C). The specific action of CF3-7α,25OHC leading to reduction of the lymphocyte count in blood finds confirmation in the results obtained for the mice of groups #4 (or D) and #6 (or F). Compared to the control group, the lymphocyte count in blood in the group of mice injected with barbadin (#4 or D) was lower only by 21%, and in the group of mice injected with barbadin + CF3-7α,25OHC by 7%. Following interaction with CF3-7α,25OHC, barbadin blocks internalisation of the EBI2 receptor from the cell membrane. The absence of any significant effect related to the treatment with barbadin or barbadin + CF3-7α,25OHC indicates a specific action of CF3-7α,25OHC on the EBI2 receptor and the consequential effects of that action, namely reduction of the count of circulating lymphocytes in blood. Moreover, the number of monocytes in group #5 (or E: mice treated with CF3-7α,25OHC) was lower by as much as 66% and the total leukocyte count (lymphocytes and monocytes included) was also substantially lower (by 51%), though only in the group of mice injected with CF3-7α,25OHC. In our subsequent in vivo tests (short-term pharmacology) we confirmed the action of CF3-7α,25OHC. In that test, too, it reduced the count of white blood cells. CF3-7α,25OHC reduces the lymphocyte count as early as following the 4 mg/kg dose and the effect lasts for 24 hours following administration.

[1] = in vivo, from reference [6]; cited from earlier work
lymphocytes = test: Short-term pharmacology model: blood count after a single injection; type: in vivo, mice; details: single subcutaneous injection
Description: Mouse groups in the short-term pharmacology model (Fig 10): Control: one vehicle injection (canola oil). The number of lymphocytes in the group is marked on the graph with the transverse line. The vehicle injection was administered to the mice subcutaneously (100 µl), following which the mice were euthanized after 6 hours (8 mice), 12 hours (8 mice), 24 hours (8 mice), or 48 hours (8 mice).
The 0.8 mg/kg dose group: single injection with CF3-7α,25OHC at the dose of 0.8 mg/kg. The oxysterol injection was administered to the mice subcutaneously (100 µl), following which the mice were euthanized after 6 hours (8 mice), 12 hours (8 mice), 24 hours (8 mice), or 48 hours (8 mice).
The 4 mg/kg dose group: single injection with CF3-7α,25OHC at the dose of 4 mg/kg. The oxysterol injection was administered to the mice subcutaneously (100 µl), following which the mice were euthanized after 6 hours (8 mice), 12 hours (8 mice), 24 hours (8 mice), or 48 hours (8 mice).
The 20 mg/kg dose group: a single injection with CF3-7α,25OHC at the dose of 20 mg/kg. The oxysterol injection was administered to the mice subcutaneously (100 µl), following which the mice were euthanized after 6 hours (8 mice), 12 hours (8 mice), 24 hours (8 mice), or 48 hours (8 mice).
The 100 mg/kg dose group: a single injection with CF3-7α,25OHC at the dose of […]. […]

[2] = after 14 days of treatment during remyelination in the cuprizone model

C[C@H](CCCC(C)(C)O)[C@H]1CC[C@H]2[C@H]3[C@H](CC[C@]12C)[C@@]1(C)CC[C@H](O)CC1=C[C@]3(O)C(F)(F)F [CF3-7α,25OHC, cholestene-7β-trifluoromethyl,3β,7α,25-triol]
drop in eosinophils (white blood cells; [2]): 43%
drop in monocytes (white blood cells; [2]): 66%
drop in neutrophils (white blood cells; [2]): 14%
drop in the total number of white blood cells (total leukocyte count) (white blood cells; after 14 days of treatment during remyelination in the cuprizone model, compared to vehicle group): 51%
drop in lymphocytes (lymphocyte count in peripheral blood lower by) (white blood cells; after 14 days of treatment in the cuprizone model, CF3-7α,25OHC 20 mg/kg s.c., barbadin 0.3 mg/kg i.p., compared to vehicle group #3): 51% and 50%
number of white blood cells (leukocytes, lymphocytes, monocytes) (white blood cells; cuprizone model, group #5 (E)): went down; also recorded: substantially reduced
in vivo half life [1]: 12 h
duration of the lymphocyte-reducing effect following administration (lymphocytes): 24 h
lowest dose that reduces the level of lymphocytes (lymphocytes; doses 0.8, 4, 20, 100 mg/kg, blood count after 6, 12, 24 or 48 hours): 4 mg/kg
